The assay has as its target T1, hedgehog acyltransferase (Hhat) (Homo sapiens, UniProt Q5VTY9).
T1 construct: Hhat-3C-FLAG-His8 (cDNA base pairs 4 to 1479), DDM-solubilized P100 membrane fraction from HEK293a cells
Description: stopped click-ELISA kinetics, apparent Km at […] Shh([…]). In kind it is cell-based. (An ELISA detects its analyte on a solid surface through an enzyme-linked reagent.)

T1 sequence (Q5VTY9 2-493): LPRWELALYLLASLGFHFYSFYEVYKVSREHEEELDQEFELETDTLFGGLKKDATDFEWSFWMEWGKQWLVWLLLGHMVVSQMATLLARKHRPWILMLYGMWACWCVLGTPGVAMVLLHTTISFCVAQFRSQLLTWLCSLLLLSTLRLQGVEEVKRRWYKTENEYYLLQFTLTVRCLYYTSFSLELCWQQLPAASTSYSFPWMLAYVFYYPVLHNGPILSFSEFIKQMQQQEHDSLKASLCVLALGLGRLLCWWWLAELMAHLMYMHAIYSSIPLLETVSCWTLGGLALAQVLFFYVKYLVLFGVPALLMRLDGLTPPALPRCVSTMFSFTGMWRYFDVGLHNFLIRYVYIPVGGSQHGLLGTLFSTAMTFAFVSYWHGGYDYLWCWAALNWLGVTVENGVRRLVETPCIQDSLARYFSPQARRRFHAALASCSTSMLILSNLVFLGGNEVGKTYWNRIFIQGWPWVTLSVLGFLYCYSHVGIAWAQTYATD

As a reminder, the Km is the concentration of substrate that gives half-maximal velocity. `C#CCCCCCCCCCCCCC(=O)SCCNC(=O)CCNC(=O)[C@H](O)C(C)(C)COP(=O)(O)OP(=O)(O)OC[C@H]1O[C@@H](n2cnc3c(N)ncnc32)[C@H](O)[C@@H]1OP(=O)(O)O` [YnC15-CoA]: the Km was found to be 0.15 ± 0.05 µM.

For the origin of these results see paper PMC4615133, “Click chemistry armed enzyme-linked immunosorbent assay to measure palmitoylation by hedgehog acyltransferase” (Analytical Biochemistry, 2015).
